Patent publication US20220031690A1, “ANTI-NEURODEGENERATIVE DISEASE AGENT” (Hayashibara Co., Ltd., priority 2018, published 2022)

How the values were obtained:
[1] = Hydroxyl radical scavenging ability (Fenton reaction, ESR); format: biochemical; details: 4PDMPO spin trap
Protocol: In this experiment, hydroxyl radicals generating from diethylenetriamine-N, N, N′, N″-pentaacetic acid (DTPA) by Fenton reaction were trapped with 4PDMPO and measured by ESRs.
Specifically, each of the dye compounds dissolved in DMSO was diluted with purified water to obtain a test compound solution. To a glass test tube, 50 μl of 1 mM hydrogen peroxide solution and 50 μl of 356 mM 4PDMPO were added, followed by 50 μl of the test compound solution. Then, 50 μl of an aqueous solution containing 1 mM FeSO4 and 1 mM DTPA (commercialized by Fuji Film Wako Pure Chemical Industries, Ltd.) was added thereto, mixed with a vortex mixer for 10 seconds, and then reacted for exactly 40 seconds, and the reaction solution was used for ESR measurement. […]
(§1) Detailed conditions of the ESR measurement are described in this section. A reaction solution for measuring various radicals was placed in a flat quartz cell for ESR, and the ESR spectrum was measured by an ESR device (commercialized by JEOL Ltd., trade name “Free radical Controller JES-FR30”). […] The peak height of the ESR spectrum corresponding to each radical at this time was set as 100, and the relative intensity when the solution was added and reacted was obtained and expressed as the radical residual rate (%). […]

PC12-HS cells = test: Evaluation method A: neurocyte growth acceleration activity (Alamar blue); format: cell-based, rat; details: for Cell proliferation rate (%): negative control = 100%; for Action on PC12-HS growth acceleration (50 ng/ml): 3 days culture, class of cell proliferation rate vs negative control = 100%; for neurocyte growth acceleration activity (in words): 40, 200 and 1,000 nM, comment on Table 2; for cytotoxicity to PC12-HS cells: concentration range tested
Source text: As a model of the nerve cell, the NGF (nerve growth factor) highly sensitive strain of PC12 cell derived from the rat adrenal pheochromocytoma (hereinafter referred to as “PC12-HS cell”; JCRB cell bank, National Research and Development Institute of Health and Nutrition), which has been widely used as a suitable model for research on human neurodegenerative disease, was used. As the test compound, […] of trimethine cyanine dye compounds; NK-5 (Chemical formula 2), NK-36 (Chemical formula 3), NK-44 (Chemical formula 5) and dye compounds represented by Chemical formulae 12 to 18, and NK-6 (Chemical formula 7), which is a monomethine cyanine dye, were selected. In addition, two kinds of ethylene cross-linked dyes (Chemical formulae 19 and 20), 15 kinds of monomethine cyanine dyes (Chemical formulae 21 to 35), and seven kinds of trimethine cyanine dyes (Chemical formulae 36 to 42), which were expected to have a good neurocyte growth acceleration activity and/or neurite-outgrowth promoting activity in the screening disclosed in Patent literature 6, were also re-evaluated for comparison. The Chemical formulae 12 to 42 are shown below.
The cyanine dye compounds subjected to the test (purity 97% by mass or more, synthesized by Hayashibara Co., Ltd., Okayama, Japan) were individually dissolved in DMSO (product number “D8418”, commercialized by SIGMA Corporation) at a concentration of 5 mg/ml, and the solutions were then filtered through DMSO-resistant membrane (“Millex-LGS LLG025SS”, commercialized by Millipore Corporation) and stored at 25° C. in a dark condition. At the time of use, they were further diluted with Dulbecco's Medium (hereinafter, abbreviated as “D-MEM medium”, commercialized by Nissui Pharmaceutical Co., Ltd.) supplemented by 10% by volume of fetal bovine serum (FBS), and subjected to the test.
PC12-HS cells were subjected to tests after frozen stock cultured cells were thawed and cultured with a D-MEM medium supplemented with 10% by volume of FBS (Hereinafter, when the term “culture” is simply used, it means that the cells are statically cultured in an incubator controlled at 37° C. under 5% by volume of CO2 conditions). Cells used in the test were collected using 0.25% by weight of trypsin solution, then diluted with a D-MEM medium supplemented with 10% by volume of FBS (hereinafter referred to as “culture medium”), seeded into collagen-coated 96-well plates (commercialized by Falcon, Tokyo, Japan, “Microtest Plate, Cell Culture, Flat Bottom”) to obtain 5×10^3 cells/100 μl/well, and cultured for 24 hours (hereinafter referred to as “pre-culture”). Then, the above test samples were diluted with a culture medium, and 100 μl of diluted solution of the test compounds were added to each well so that the final concentration of the test compounds in the wells became 50 ng/ml, and the cells were cultured for another three days. On day 3, the cultures supernatant was removed from each well, 200 μl of culture medium containing 10% by volume of Alamar blue reagents (commercialized by Trek Diagnostic Systems Inc., Ohio, USA) were added to each well, and the cells were cultured for 6 hours. After culturing for 6 hours, the cells were measured for fluorescent intensity at a wavelength of 544-590 nm by “FlexStation 3”, a product name of a fluorescent plate reader (commercialized by Japan Molecular Devices Corporation, Tokyo, Japan). […] Measurements were performed for each test compound in triplicate, and the mean values were shown.
The method was based on Experiment 1-1, except the concentrations of the test compounds were set to three doses of 40 nM, 200 nM and 1,000 nM for evaluation method A (neurocyte growth accelerating effect), and two doses of 200 nM and 1,000 nM for evaluation method B (neurite outgrowth promoting effect). […]

[2] = Peroxyl radical scavenging ability (AAPH, ESR); format: biochemical; details: DMPO spin trap, AAPH 37° C.
Protocol: Since the peroxyl radical generated by heating of 2,2′-azobis (2-aminodipropane) dihydrochloride (hereinafter referred to as “AAPH”) is a model of biologically derived radicals, in this experiment, the ability of the test compound to scavenge the peroxyl radical was measured by ESR.
Specifically, each of the dye compounds dissolved in DMSO was diluted with 0.1 M phosphate buffer to prepare a test compound solution. […] Measurements were performed in triplicate for each of the concentrations of each test compound, and the IC50 was calculated using the mean value thereof and shown in Table 6.
as §1

[3] = Superoxide scavenging ability (hypoxanthine/xanthine oxidase, ESR); format: biochemical
Protocol: In this experiment, superoxide generated by reacting hypoxanthine with xanthine oxidase was captured by 5,5-dimethyl-4-phenyl-1-pyrroline N-oxide (hereinafter referred to as “4PDMPO”) as a spin trapping agent, and SOD-like activity by the test compound was measured by ESR.
Specifically, A 50 μl of aqueous solution of hypoxanthine (commercialized by Fuji Film Wako Pure Chemical Industries, Ltd., Tokyo, Japan) prepared to 1 mM was added to a glass test tube. […] The ESR spectrum of the reaction mixture was measured 40 seconds after the addition of xanthine oxidase, and the radical scavenging ability of the test compound was shown as its relative percentage thereof, with the case where no dye compound was added as the radical intensity of 100%. Measurements were performed in triplicate for each of the concentrations of each test compound, and the IC50 was calculated using the average value thereof and shown in Table 6. […]
A reaction solution for measuring various radicals was placed in a flat quartz cell for ESR, and the ESR spectrum was measured by an ESR device (commercialized by JEOL Ltd., trade name “Free radical Controller JES-FR30”). […] The peak height of the ESR spectrum corresponding to each radical at this time was set as 100, and the relative intensity when the solution was added and reacted was obtained and expressed as the radical residual rate (%). […]

[4] = Solubility in distilled water and ethanol (absorbance method); format: physicochemical
Protocol: A test sample solution, prepared by dissolving each test compound in DMSO to give a concentration of 5 mg/mL, was diluted with 70% (v/v) acetonitrile aqueous solution, and the absorption spectrum at the wavelength range of 400 nm to 900 nm is measured by a spectrophotometer (“FLEX STATION 3”, manufactured by Molecular Devices Japan, Tokyo, Japan). The maximum absorption wavelength of each test compound was determined, then the correlation equation between the absorbance and the concentration at the wavelength was calculated to prepare a calibration curve, and then the following quantitative test was carried out. […] The solubility of each dye compound was measured as follows with reference to the method described in the Japanese Pharmacopoeia. […] After 30 min, 1 mL of the mixture was sampled at 3 times from each test solution, centrifuged at 18,400×g for 5 min, 0.3 mL of the supernatant was collected and admixed with 0.7 mL of acetonitrile to make a total volume of 1.0 mL. Then, the absorbance was measured at the maximum absorption wavelength corresponding to each of the dyes described above, and the concentration of dye was calculated from the calibration curve.

[5] = DPPH radical scavenging ability (absorbance method); format: biochemical
Source text: 2,2-Diphenyl-1-picrylhydrazyl (hereinafter referred to as “DPPH”) is a radical with an unpaired electron and has the oxidizing ability of other substances. In addition, because it is stable and easy to handle, it is widely used as an artificial radical-like substance for measuring the antioxidant ability of antioxidants. When DPPH reacts with a substance having antioxidant ability, it loses its own oxidizing ability and its color changes from deep purple to […].
DPPH (commercialized by Tokyo Kasei Kogyo Co., Ltd., Tokyo, Japan) was dissolved in ethanol to prepare a 167 μM DPPH ethanol solution, and 90 μl of the solution was added to each well of the 96-well microplate. A 60 μl each of the test compound serially diluted with ethanol was added to the DPPH ethanol solution, and the mixture was reacted at room temperature for 2 hours, and then the absorbance at 490 nm was measured. […] From those value, the 50% inhibitory concentration of the DPPH radical (Hereinafter, it is referred to as “IC50”) was calculated.

Structure (SMILES): CCN1C=CC(=Cc2cc[n+](CC)c3ccccc23)c2ccccc21.[I-] [NK-6]
- IC50 [1]: 62 µM
- Cell proliferation rate (%) (PC12-HS cells; 1.000 nM): 141.9%
- Cell proliferation rate (%) (PC12-HS cells; 40 nM): 105.0%
- Action on PC12-HS growth acceleration (50 ng/ml) (PC12-HS cells): ◯ (the relative value of 130% to 169% was judged to be equivalent to NK-4 (“circle”))
- Cell proliferation rate (%) (PC12-HS cells; 200 nM): 117.0%
- neurocyte growth acceleration activity (in words) (PC12-HS cells): slightly weaker than that of NK-4
- cytotoxicity to PC12-HS cells (PC12-HS cells): do not show cytotoxicity
- IC50 [2]: 43 µM
- superoxide radical scavenging ability relative to NK-4 (comparison of IC50 values) [3]: more than twice that of NK-4
- IC50 ([3]; ESR, 4PDMPO spin trap, read-out: IC50 superoxide radical): 69 µM
- Solubility Dictilled water ([4]; distilled water, room temperature, 30 min): 93 µg/mL
- Solubility Ethanol ([4]; ethanol): 645 µg/mL
- relative DPPH radical scavenging activity based on the IC50 value, relative to NK-4 [5]: about 2 times
- IC50 ([5]; ethanol, room temperature, 2 hours, absorbance at 490 nm): 380 µM

Structure (SMILES): CCN1C=CC(=CC=Cc2cc[n+](CC)c3ccccc23)c2ccccc21.[Br-] [NK-36]
- Cell proliferation rate (%) (PC12-HS cells; 1.000 nM): 137.2%
- Cell proliferation rate (%) (PC12-HS cells; 40 nM): 123.0%
- Action on PC12-HS growth acceleration (50 ng/ml) (PC12-HS cells): ◯ (the relative value of 130% to 169% was judged to be equivalent to NK-4 (“circle”))
- Cell proliferation rate (%) (PC12-HS cells; 200 nM): 115.5%
- neurocyte growth acceleration activity (in words) (PC12-HS cells): slightly weaker than that of NK-4
- cytotoxicity to PC12-HS cells (PC12-HS cells): do not show cytotoxicity

Structure (SMILES): CCCCN1C=CC(=CC=Cc2cc[n+](CCCC)c3ccccc23)c2ccccc21.[I-] [NK-44]
- Cell proliferation rate (%) (PC12-HS cells; 1.000 nM): 78.5%
- cell proliferation relative to the negative control (PC12-HS cells; 40 nM): about 1.9 times
- Cell proliferation rate (%) (PC12-HS cells; 40 nM): 193.4%
- Action on PC12-HS growth acceleration (50 ng/ml) (PC12-HS cells): ⊚ (170% or higher was judged to be significantly stronger than NK-4 (“double circle”))
- Cell proliferation rate (%) (PC12-HS cells; 200 nM): 154.3%
- neurocyte growth acceleration activity (in words) (PC12-HS cells): strongest activity
- cytotoxicity to PC12-HS cells (PC12-HS cells): do not show cytotoxicity
